Test results reported in patent publication US8410174B2, “Method for treating arthritis” (AnaMar AB, priority 2000, dated 2013).

Key:
[1] = target: T1, MC3 (Homo sapiens, UniProt P41968); assay: Affinity for the MC3-receptors, binding assay with I125-NDP-αMSH as ligand; conditions: read-out: Affinity for MC-receptors Ki MC3
Experimental: (§1) Test 2. Affinity for the MC3-Receptors, the MC4-Receptors and the MC5-Receptors
(§2) The binding assays were carried out essentially as described by Szardenings et al, J Biol Chem 1997; 272; 27943-27948 and Schiöth et al, FEES Lett 1997; 410; 223-228 using I^125-NDP-αMSH as ligand.

[2] = target: T2, MC4 (Homo sapiens, UniProt P32245); assay: Stimulation of cAMP, MC4; format: cell-based
Experimental: (§3) The stimulation of cAMP was carried out essentially as described by Schiöth et al, Br J Pharmacol 1998; 124; 75-82.

[3] = target: MC1-receptor (Mus musculus, UniProt Q01727); assay: Affinity for the MC1-receptor, binding assay with I125-NDP-αMSH as ligand; conditions: read-out: Affinity for MC-receptors Ki MC1
Experimental: Test 1. Affinity for the MC1-receptor
The binding assay was carried out essentially as described by Lunec et al, Melanoma Res 1992; 2; 5-12, using I^125-NDP-αMSH as ligand.

[4] = target: T3, MC5 (Homo sapiens, UniProt P33032); assay: Affinity for the MC5-receptors, binding assay with I125-NDP-αMSH as ligand; conditions: read-out: Affinity for MC-receptors Ki MC5
Experimental: as §1, §2

[5] = target: T2, MC4; assay: Affinity for the MC4-receptors, binding assay with I125-NDP-αMSH as ligand; conditions: read-out: Affinity for MC-receptors Ki MC4
Experimental: as §1, §2

[6] = target: MC1 (Homo sapiens, UniProt Q01726); assay: Stimulation of cAMP, MC1; format: cell-based
Experimental: as §3

[7] = target: T3, MC5; assay: Stimulation of cAMP, MC5; format: cell-based
Experimental: as §3

[8] = target: T1, MC3; assay: Stimulation of cAMP, MC3; format: cell-based
Experimental: as §3

[9] = tested on: melanocortin receptors; assay: Affinity to the melanocortin receptors; format: binding

T2 sequence (P32245 whole entry): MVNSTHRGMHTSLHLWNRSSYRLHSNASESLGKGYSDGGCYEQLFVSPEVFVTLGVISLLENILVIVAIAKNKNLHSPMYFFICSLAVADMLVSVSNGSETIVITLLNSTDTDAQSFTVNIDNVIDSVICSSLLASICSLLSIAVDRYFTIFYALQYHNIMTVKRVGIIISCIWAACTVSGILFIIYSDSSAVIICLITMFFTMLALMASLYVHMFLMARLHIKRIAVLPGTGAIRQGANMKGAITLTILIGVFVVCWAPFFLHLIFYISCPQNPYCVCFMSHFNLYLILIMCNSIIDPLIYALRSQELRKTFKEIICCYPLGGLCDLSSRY
T1 sequence (P41968 whole entry): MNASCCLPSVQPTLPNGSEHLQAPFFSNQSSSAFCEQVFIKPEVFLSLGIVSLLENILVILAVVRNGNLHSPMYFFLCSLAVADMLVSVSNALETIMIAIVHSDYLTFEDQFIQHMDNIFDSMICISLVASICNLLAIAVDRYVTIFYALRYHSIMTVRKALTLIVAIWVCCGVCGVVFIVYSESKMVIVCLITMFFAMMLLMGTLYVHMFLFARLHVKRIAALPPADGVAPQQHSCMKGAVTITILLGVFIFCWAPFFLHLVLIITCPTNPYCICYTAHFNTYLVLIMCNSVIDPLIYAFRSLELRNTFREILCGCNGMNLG
T3 sequence (P33032 whole entry): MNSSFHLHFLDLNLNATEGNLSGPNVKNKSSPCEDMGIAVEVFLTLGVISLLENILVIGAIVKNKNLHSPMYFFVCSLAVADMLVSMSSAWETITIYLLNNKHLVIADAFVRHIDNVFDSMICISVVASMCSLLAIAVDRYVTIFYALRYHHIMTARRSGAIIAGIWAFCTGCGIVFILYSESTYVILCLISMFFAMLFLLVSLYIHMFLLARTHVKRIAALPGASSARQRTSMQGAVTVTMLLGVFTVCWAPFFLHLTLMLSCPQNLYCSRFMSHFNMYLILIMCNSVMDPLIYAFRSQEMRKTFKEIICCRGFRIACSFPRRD
Chain of MC1-receptor (Q01727 whole entry): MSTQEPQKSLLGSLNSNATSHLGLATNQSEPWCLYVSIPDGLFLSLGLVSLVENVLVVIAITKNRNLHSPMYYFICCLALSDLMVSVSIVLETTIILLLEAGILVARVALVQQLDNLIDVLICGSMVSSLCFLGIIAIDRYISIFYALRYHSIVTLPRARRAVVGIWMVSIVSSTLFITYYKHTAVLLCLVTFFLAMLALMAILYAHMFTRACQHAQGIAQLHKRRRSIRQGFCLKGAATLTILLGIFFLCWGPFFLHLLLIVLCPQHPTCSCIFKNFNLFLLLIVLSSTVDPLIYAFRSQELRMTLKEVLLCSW
Chain of MC1 (Q01726 whole entry): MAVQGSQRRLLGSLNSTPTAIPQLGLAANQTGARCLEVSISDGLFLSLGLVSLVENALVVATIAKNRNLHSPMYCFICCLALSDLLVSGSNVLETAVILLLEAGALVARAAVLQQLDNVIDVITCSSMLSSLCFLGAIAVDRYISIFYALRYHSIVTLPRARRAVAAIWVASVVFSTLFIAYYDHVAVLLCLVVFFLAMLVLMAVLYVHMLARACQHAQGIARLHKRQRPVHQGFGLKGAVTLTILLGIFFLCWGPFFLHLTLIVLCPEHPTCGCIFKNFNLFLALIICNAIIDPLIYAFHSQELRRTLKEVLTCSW

SMILES: CC(=O)O.N=C(N)NN=Cc1cc([N+](=O)[O-])cc([N+](=O)[O-])c1.O.O (hydrate or solvate)
- melting point: 251 to 254 °C (dec.)

SMILES: COc1ccc(C=NNC(=N)NO)cc1[N+](=O)[O-] [1:76, N-(4-Methoxy-3-nitrobenzylideneamino)-N′-hydroxyguanidine]
- melting point: 219 to 221 °C

SMILES: CC(=O)O.N=C(N)NN=Cc1ccc([N+](=O)[O-])cc1[N+](=O)[O-]
- melting point: 224 to 226 °C

SMILES: CC(=O)O.Cc1ccc(C=NNC(=N)N)c([N+](=O)[O-])c1O
- melting point: 240 to 241 °C

SMILES: COc1ccc(C=NNC(=N)N)cc1Br.Cl
- melting point: 261 to 262.5 °C

SMILES: CC(=O)O.N=C(N)NN=Cc1cc(Cl)cc([N+](=O)[O-])c1Br
- melting point: 136.5 to 137 °C

SMILES: COc1c(C=NNC(=N)N)cc(Br)cc1[N+](=O)[O-].Cl
- melting point: 258 to 259 °C

SMILES: Cc1ccc(S(=O)(=O)O)cc1.N=C(NO)NN=Cc1cc(Cl)ccc1[N+](=O)[O-] [1:4, N-(5-Chloro-2-nitrobenzylideneamino)-N′-hydroxyguanidine tosylate]
- Ki [1]: 68 µM
- Influence on cAMP MC4c [2]: 17.1
- Ki [3]: 42 µM
- Ki [4]: 33 µM
- Ki [5]: 61 µM
- Influence on cAMP MC1c [6]: 6.4
- Influence on cAMP MC5c [7]: 8.7
- Influence on cAMP MC3c [8]: 1

SMILES: Cl.N=C(N)NN=Cc1ccccc1S(=O)(=O)O
- melting point: > 260 °C

SMILES: Cl.N=C(N)NN=Cc1c(Cl)ccc([N+](=O)[O-])c1[N+](=O)[O-]
- melting point: 153 to 154.5 °C

SMILES: CC(=O)O.COc1cc(OC)c(C=NNC(=N)N)c(OC)c1
- melting point: 66 to 68 °C

SMILES: N=C(NO)NN=Cc1ccccc1S(=O)(=O)O [1:134, N-(2-Sulphobenzylideneamino)-N′-hydroxyguanidine]
- melting point: 243.5 to 244 °C

SMILES: CC(=O)O.N=C(N)NN=Cc1cc(Cl)cc(Cl)c1[N+](=O)[O-]
- melting point: 88 to 91 °C

SMILES: N=C(N)N/N=C/c1c(Cl)cccc1Cl [Guanabenz]
- affinity to the melanocortin receptors [9]: no affinity

SMILES: CC(=O)O.N=C(N)NN=Cc1c(Cl)ccc(Cl)c1[N+](=O)[O-]
- melting point: 219.5 to 221 °C

SMILES: CC(=O)O.COc1ccc(C=NNC(=N)N)cc1[N+](=O)[O-]
- melting point: 144 to 147 °C

SMILES: CC(=O)O.N=C(N)NN=Cc1ccc(F)c(F)c1
- melting point: 176 to 178 °C

SMILES: CC(=O)O.N=C(N)NN=Cc1cc(F)cc(F)c1[N+](=O)[O-]
- melting point: 231 to 233 °C

SMILES: CC(=O)O.N=C(N)NN=Cc1ccc(Br)cc1F
- melting point: 187 to 188 °C

SMILES: CC(=O)O.N=C(N)NN=Cc1ccc(F)c([N+](=O)[O-])c1
- melting point: 222 to 224 °C (dec.)

SMILES: CC(=O)O.COc1cc(O)c(C=NNC(=N)N)c(OC)c1
- melting point: 115 to 118 °C

SMILES: CC(=O)O.COc1cc(C=NNC(=N)N)cc(OC)c1OC
- melting point: 223 to 225 °C

SMILES: COc1ccc(C=NNC(=N)N)c(OC)c1OC.Cl
- melting point: 181 to 183 °C

SMILES: COc1ccc(C=NNC(=N)NO)cc1Br.Cc1ccc(S(=O)(=O)O)cc1 [1:3, N-(3-Bromo-4-methoxybenzylideneamino)-N′-hydroxyguanidine tosylate]
- Ki [1]: 91 µM
- Influence on cAMP MC4c [2]: 31.8
- Ki [3]: 42 µM
- Ki [4]: 47 µM
- Ki [5]: 62 µM
- Influence on cAMP MC1c [6]: 8.4
- Influence on cAMP MC5c [7]: 4.7
- Influence on cAMP MC3c [8]: 16

SMILES: COc1ccc([N+](=O)[O-])c(C=NNC(=N)N)c1[N+](=O)[O-].Cl
- melting point: 217 to 218 °C

SMILES: CC(=O)O.N=C(N)NN=Cc1cccc(F)c1F
- melting point: 149 to 151.5 °C

SMILES: COc1cc([N+](=O)[O-])cc(C=NNC(=N)NO)c1OC.Cl
- melting point: 196 to 197.5 °C

SMILES: CC(=O)O.COc1c(Cl)cc(C=NNC(=N)N)cc1Cl
- melting point: 185 to 190 °C

SMILES: Cc1cc(O)c(C=NNC(=N)N)cc1[N+](=O)[O-].Cl
- melting point: 229 to 230 °C

SMILES: CC(=O)O.COc1cc([N+](=O)[O-])cc(C=NNC(=N)N)c1OC
- melting point: 191 to 194 °C

SMILES: CC(=O)O.N=C(N)NN=Cc1cc([N+](=O)[O-])c(Br)cc1F
- melting point: 175 to 198 °C (dec.)

SMILES: Cl.N=C(N)NN=Cc1cc(Br)cc([N+](=O)[O-])c1O
- melting point: > 250 °C

SMILES: Cc1cc([N+](=O)[O-])c(C=NNC(=N)N)cc1Br.Cl
- melting point: 246.5 to 248 °C

SMILES: CC(=O)O.COc1c(C)cc(C=NNC(=N)N)cc1Br
- melting point: 163 to 166 °C

SMILES: CC(=O)O.N=C(N)NN=Cc1cc([N+](=O)[O-])ccc1Cl
- melting point: 222 to 224 °C (dec.)

SMILES: CC(=O)O.N=C(N)NN=Cc1cc([N+](=O)[O-])ccc1F
- melting point: 192 to 195 °C

SMILES: CC(=O)O.N=C(N)NN=Cc1ccc(Br)c([N+](=O)[O-])c1
- melting point: 152 to 153 °C

SMILES: CC(=O)O.COc1ccc(C=NNC(=N)N)c(Cl)c1OC
- melting point: 198 to 200 °C

SMILES: CC(=O)O.COc1cc(OC)c([N+](=O)[O-])cc1C=NNC(=N)N
- melting point: 207 to 210 °C

SMILES: COc1cc([N+](=O)[O-])cc(C=NNC(=N)N)c1O.Cl
- melting point: 243 to 246 °C

SMILES: CC(=O)O.COc1cc([N+](=O)[O-])c([N+](=O)[O-])c(C=NNC(=N)N)c1OC
- melting point: 165 to 171 °C

SMILES: Cl.N=C(N)NN=Cc1c([N+](=O)[O-])ccc(Br)c1[N+](=O)[O-]
- melting point: 166.5 to 168 °C

SMILES: CC(=O)O.N=C(N)NN=Cc1c(F)cccc1F
- melting point: 138.5 to 141 °C

SMILES: CC(=O)O.N=C(N)NN=Cc1ccc(F)c(Br)c1
- melting point: 172 to 173.5 °C

SMILES: COc1cc([N+](=O)[O-])cc(C=NNC(=N)N)c1OC.Cl
- melting point: 237 to 238 °C

SMILES: CC(=O)O.COc1c(Cl)cc(C=NNC(=N)N)cc1[N+](=O)[O-]
- melting point: 255 to 258 °C (dec.)

SMILES: CC(=O)O.COc1ccc(C=NNC(=N)N)c(O)c1
- melting point: 161 to 164 °C

SMILES: Cl.N=C(N)NN=Cc1cccc(I)c1
- melting point: 203 to 204 °C

SMILES: CC(=O)O.COc1cc(Cl)c([N+](=O)[O-])cc1C=NNC(=N)N
- melting point: 196 to 199 °C
